row,SMILES,melting point [°C]
1,"COc1cc(Nc2c(C#N)cnc3cc(N(C)CCCN(C)C)c(OC)cc23)c(Cl)cc1Cl [Example 55, 4-[(2,4-Dichloro-5-methoxyphenyl)amino]-7-{[3-(dimethylamino)propyl](methyl)amino]-6-methoxyquinoline-3-carbonitrile]",116 to 117
2,"CC#CCOc1cc2ncc(C#N)c(Nc3cc(OC)c(Cl)cc3Cl)c2cc1OC [Example 1, 7-(2-Butynyloxy)-4-[(2,4-dichloro-5-methoxyphenyl)amino]-6-methoxy-3-quinolinecarbonitrile]",193 to 197
3,"CCOc1cc2c(Nc3cc(OC)c(Cl)cc3Cl)c(C#N)cnc2cc1OCCOC [Example 23, 4-[(2,4-Dichloro-5-methoxyphenyl)amino]-6-ethoxy-7-(2-methoxyethoxy)3-quinolinecarbonitrile]",215 to 217
4,"COCCOc1cc2ncc(C#N)c(Nc3cc(OC)c(Cl)cc3Cl)c2cc1OC [Example 14, 4-[(2,4-Dichloro-5-methoxyphenyl)amino]-6-methoxy-7-[2-methoxyethoxy]-3-quinolinecarbonitrile]",210 to 212
5,"COc1cc2c(Nc3ccc(Sc4nccn4C)c(Cl)c3)c(C#N)cnc2cc1N(C)CCCN(C)C [Example 30, 4-[3-Chloro-4-(1-methyl-1H-imidazol-2-ylsulfanyl)-phenylamino]-7-{[3-(dimethylamino)propyl]-methylamino}-6-methoxyquinoline-3-carbonitrile]",196 to 201
6,"CCCCOc1cc2c(Nc3cc(OC)c(Cl)cc3Cl)c(C#N)cnc2cc1OCCOC [Example 24, 6-Butoxy-4-[(2,4-dichloro-5-methoxyphenyl)amino]-7-(2-methoxyethoxy)-3-quinolinecarbonitrile]",166 to 167
7,"COc1cc(Nc2c(C#N)cnc3cc(Sc4ccccc4)c(OC)cc23)c(Cl)cc1Cl [Example 8, 4-[(2,4-Dichloro-5-methoxyphenyl)amino]-6-methoxy-7-phenylsulfanyl-3-quinolinecarbonitrile]",220 to 222
8,"COc1ccc(C)c(Nc2c(C#N)cnc3cc(OCCCC4CCN(C)CC4)c(OC)cc23)c1 [Example 48, 6-Methoxy-4-[(5-methoxy-2-methylphenyl)amino]-7-[3-(1-methylpiperidine-4-yl)propoxy]quinoline-3-carbonitrile]",163 to 166
9,"COc1cc(Nc2c(C#N)cnc3cc(OCC(C)(C)CN(C)C)c(OC)cc23)c(Cl)cc1Cl [Example 2, 4-[(2,4-Dichloro-5-methoxyphenyl)amino]-7-(3-dimethylamino-2,2-dimethylpropoxy)-6-methoxy-3-quinolinecarbonitrile]",178 to 180
10,"CCCCNc1c(C#N)cnc2cc(OCCOC)c(OC)cc12 [Example 10, 4-Butylamino-6-methoxy-7-(2-methoxyethoxy)-3-quinolinecarbonitrile]",99 to 102
11,"COc1cc2c(Nc3ccc(Sc4nccn4C)c(Cl)c3)c(C#N)cnc2cc1NCCCN(C)C [Example 29, 4-[3-Chloro-4-(1-methyl-1H-imidazol-2-ylsulfanyl)-phenylamino]-7-{[3-(dimethyl)aminopropyl]amino}-6-methoxyquinoline-3-carbonitrile]",198 to 200
12,"COc1cc(Nc2c(C#N)cnc3cc(OCC4CCNCC4)c(OC)cc23)c(Cl)cc1Cl [Example 53, 4-[(2,4-Dichloro-5-methoxyphenyl)amino]-6-methoxy-7-(piperidin-4-ylmethoxy)quinoline-3-carbonitrile]",134 to 138
13,"COc1cc(Nc2c(C#N)cnc3cc(NCCCC4CCN(C)CC4)c(OC)cc23)c(Cl)cc1Cl [Example 28, 4-[(2,4-Dichloro-5-methoxyphenyl)amino]-6-methoxy-7-{[3-(1-methylpiperidin-4-yl)propyl]amino}quinoline-3-carbonitrile]",122 to 124
14,"COCCOc1cc2c(Nc3cc(OC)c(Cl)cc3Cl)c(C#N)cnc2cc1OCC1CCN(C)CC1 [Example 22, 4-[(2,4-Dichloro-5-methoxyphenyl)amino]-6-[2-methoxyethoxy]-7-[(1-methylpiperidine-4-yl)methoxy]3-quinolinecarbonitrile]",153 to 155
15,"COCCOc1ccc2c(Nc3ccc(Cl)cc3Cl)c(C#N)cnc2c1 [Example 34, 4-[(2,4-Dichlorophenyl)amino]-7-(2-methoxyethoxy)-3-quinolinecarbonitrile]",144 to 145
16,"CCN1CCN(CCCOc2cc3ncc(C#N)c(Nc4ccc(Sc5nccn5C)c(Cl)c4)c3cc2OCCOC)CC1 [Example 21, 4-({3-Chloro-4-[(1-methyl-1H-imidazol-2-yl)sulfanyl]phenyl}amino)-7-[3-(4-ethyl-1-piperazinyl)propoxy]-6-(2-methoxyethoxy)-3-quinolinecarbonitrile]",188 to 190
17,"COCCOc1ccc2c(Nc3cc(OC)c(Cl)cc3Cl)c(C#N)cnc2c1 [Example 33, 4-[(2,4-Dichloro-5-methoxyphenyl)amino]-7-(2-methoxyethoxy)-3-quinolinecarbonitrile]",182 to 183
18,"COc1cc2c(Nc3ccc(Sc4nccn4C)c(Cl)c3)c(C#N)cnc2cc1N1CCN(C)CC1 [Example 27, 4-[3-Chloro-4-(1-methyl-1H-imidazol-2-ylsulfanyl)-phenylamino]-6-methoxy-7-(4-methylpiperazin-1-yl)-quinoline-3-carbonitrile]",270 to 272

row,SMILES,melting point [°C]
1,"COc1cc(Nc2c(C#N)cnc3cc(OCc4cccs4)c(OC)cc23)c(Cl)cc1Cl [Example 5, 4-[(2,4-Dichloro-5-methoxyphenyl)amino]-6-methoxy-7-(2-thienylmethoxy)-3-quinolinecarbonitrile]",194 to 196
2,"COCCNc1cc2ncc(C#N)c(Nc3cc(OC)c(Cl)cc3Cl)c2cc1OC [Example 56, 4-[(2,4-Dichloro-5-methoxyphenyl)amino]-6-methoxy-7-[(2-methoxyethyl)amino]quinoline-3-carbonitrile]",165 to 166
3,"COCCOc1cc2ncc(C#N)c(NC3CCCC3)c2cc1OC [Example 9, 4-Cyclopentylamino-6-methoxy-7-(2-methoxyethoxy)-3-quinolinecarbonitrile]",87 to 90
4,"COc1cc(Nc2c(C#N)cnc3cc(OCC4CCCCO4)c(OC)cc23)c(Cl)cc1Cl (centres unmarked) [Example 25, 4-[(2,4-Dichloro-5-methoxyphenyl)amino]-6-methoxy-7-(tetrahydro-2H-pyran-2-ylmethoxy)3-quinolinecarbonitrile]",193 to 196
5,"COCCOc1cc2ncc(C#N)c(Nc3cc(OC)ccc3Cl)c2cc1OC [Example 38, 4-[(2-Chloro-5-methoxyphenyl)amino]-6-methoxy-7-(2-methoxyethoxy)quinoline-3-carbonitrile]",179 to 181
6,"COCCOc1cc2ncc(C#N)c(Nc3ccc(C)cc3C)c2cc1OC [Example 40, 4-[(2,4-Dimethylphenyl)amino]-6-methoxy-7-(2-methoxyethoxy)quinoline-3-carbonitrile]",107 to 109
7,"COc1cc(Nc2c(C#N)cnc3cc(Oc4ccncc4)c(OC)cc23)c(Cl)cc1Cl [Example 12, 4-[(2,4-Dichloro-5-methoxyphenyl)amino]-6-methoxy-7-(pyridin-4-yloxy)-3-quinolinecarbonitrile]",267 to 269
8,"COc1cc(Nc2c(C#N)cnc3cc(OCCCN4CCS(=O)(=O)CC4)c(OC)cc23)c(Cl)cc1Cl [Example 3, 4-[(2,4-Dichloro-5-methoxyphenyl)amino]-7-[3-(1,1-dioxido-4-thiomorpholinyl)propoxy]-6-methoxy-3-quinolinecarbonitrile]",118 to 120
9,"COCCOc1cc2ncc(C#N)c(Nc3cc(OC)c(Cl)cc3Cl)c2cc1OCCN1CCOCC1 [Example 26, 4-[(2,4-Dichloro-5-methoxyphenyl)amino]-7-(2-methoxyethoxy)-6-(2-morpholin-4-ylethoxy)3-quinolinecarbonitrile]",158 to 159
10,"COc1cc(Nc2c(C#N)cnc3cc(OCc4ccccc4)c(OC)cc23)c(Cl)cc1Cl [Example 6, 7-Benzyloxy-4-[(2,4-dichloro-5-methoxyphenyl)amino]-6-methoxy-3-quinolinecarbonitrile]",198 to 200
11,"COc1cc(Nc2c(C#N)cnc3cc(SCc4ccccc4)c(OC)cc23)c(Cl)cc1Cl [Example 11, 7-Benzylthio-4-[(2,4-dichloro-5-methoxyphenyl)amino]-6-methoxy-3-quinolinecarbonitrile]",123 to 125
12,"COCCOc1cc2ncc(C#N)c(Nc3cc(OC)c(OC)c(OC)c3)c2cc1OC [Example 17, 6-Methoxy-7-[2-methoxyethoxy]-4-[(3,4,5-trimethoxyphenyl)amino]-3-quinolinecarbonitrile]",188 to 190
13,"COc1cc(Nc2c(C#N)cnc3cc(NCCCN(C)C)c(OC)cc23)c(Cl)cc1Cl [Example 54, 4-[(2,4-Dichloro-5-methoxyphenyl)amino]-7-{[3-(dimethylamino)propyl]amino}-6-methoxyquinoline-3-carbonitrile]",165 to 167
14,"CCN1CCC(COc2cc3ncc(C#N)c(Nc4cc(OC)c(Cl)cc4Cl)c3cc2OC)CC1 [Example 51, 4-[(2,4-Dichloro-5-methoxyphenyl)amino]-7-[(1-ethylpiperidine-4-yl)methoxy]-6-methoxyquinoline-3-carbonitrile]",192 to 195
15,"COc1cc2c(Nc3ccc(Oc4cccnc4)cc3)c(C#N)cnc2cc1OCC1CCN(C)CC1 [Example 57, 6-Methoxy-7-(1-methyl-piperidin-4-ylmethoxy)-4-{[4-(pyridin-3-yloxy)-phenyl]amino}quinoline-3-carbonitrile]",182 to 184
16,"COCCOc1cc2ncc(C#N)c(Nc3cc(OC)c(C)cc3C)c2cc1OC [Example 37, 4-[(2,4-Dimethyl-5-methoxyphenyl)amino]-6-methoxy-7-(2-methoxyethoxy)quinoline-3-carbonitrile]",143 to 145
17,"COCCOc1cc2c(Nc3ccc(Sc4nccn4C)c(Cl)c3)c(C#N)cnc2cc1OCCCN(C)C [Example 20, 4-({3-Chloro-4-[(1-methyl-1H-imidazol-2-yl)sulfanyl]phenyl}amino)-7-[3-(dimethylamino)propoxy]-6-(2-methoxyethoxy)-3-quinolinecarbonitrile]",194 to 203

# Reference: patent publication US6780996B2, “Process for the preparation of 7-substituted-3 quinolinecarbonitriles” (Wyeth Holdings Corporation, priority 2002, dated 2004)
